Our source for the IC50 values is patent US20260297070A1, “CYCLIC [COMPOUND LEFT OUT] WRN INHIBITORS” (Nimbus Wadjet, Inc., priority 2023, published 2026).

T1 sequence (Q14191 with tags, fused parts or gaps L1074F limits assumed): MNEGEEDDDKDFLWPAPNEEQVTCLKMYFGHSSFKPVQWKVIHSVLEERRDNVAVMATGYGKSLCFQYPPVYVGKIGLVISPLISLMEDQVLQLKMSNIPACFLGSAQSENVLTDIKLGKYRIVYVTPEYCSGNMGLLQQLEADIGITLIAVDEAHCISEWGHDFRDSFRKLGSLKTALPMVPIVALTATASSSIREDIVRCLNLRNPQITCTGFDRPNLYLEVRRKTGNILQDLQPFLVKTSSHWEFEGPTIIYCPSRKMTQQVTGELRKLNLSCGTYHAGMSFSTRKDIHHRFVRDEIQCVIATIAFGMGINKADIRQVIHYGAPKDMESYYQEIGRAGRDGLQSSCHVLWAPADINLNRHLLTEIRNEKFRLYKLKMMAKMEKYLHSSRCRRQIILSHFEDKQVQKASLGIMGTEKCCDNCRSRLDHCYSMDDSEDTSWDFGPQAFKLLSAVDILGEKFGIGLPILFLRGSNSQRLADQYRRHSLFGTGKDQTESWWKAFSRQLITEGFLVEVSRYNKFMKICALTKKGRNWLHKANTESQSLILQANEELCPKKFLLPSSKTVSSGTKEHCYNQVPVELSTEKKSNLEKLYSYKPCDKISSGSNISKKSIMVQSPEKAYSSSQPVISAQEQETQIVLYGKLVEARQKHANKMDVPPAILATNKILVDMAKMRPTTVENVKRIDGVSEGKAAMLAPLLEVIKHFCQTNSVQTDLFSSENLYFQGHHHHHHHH

This assay addresses T1, human Werner helicase (WRN-BV08, Uniprot Q14191, amino acids 517-1235 with L1074F point mutation) (Homo sapiens, UniProt Q14191, L1074F).
T1 construct: Uniprot Q14191, amino acids 517-1235 with L1074F point mutation; TEV-cleavable 8×His (C, cleaved yes); made in house; host or cells: Sf9 insect cells (baculovirus)
Nature of the assay: WRN (BV08) ADP-Glo Assay. In kind it is biochemical. To be noted: 0.15 nM WRN, 5 μM ATP, 0.1 nM DNA duplex, 15 min preincubation, 60 min at 25° C., pH 7.5, 1% DMSO; read-out: ADP-Glo_hWRN_IC50. From the text:
Example 2: WRN (BV08) ADP-Glo Assay Protocol
Bovine skin gelatin (BSG), dimethyl sulfoxide (DMSO), Pluronic F-127 and Tris(2-carboxyethyl)phosphine hydrochloride solution (TCEP) were purchased from Sigma-Aldrich at the highest level of purity possible. Bicine buffer solution was purchased from Alfa Aesar and compound NSC-617145 was purchased from Tocris. DNA duplex was synthesized at BGI (Shenzhen, China) and was composed of strand 1 with the sequence 5′-[…]-3′ (SEQ ID NO.: 1) and strand 2 with the sequence 5′-[…]-3′ (SEQ ID NO.: 2). DNA strands were annealed by heating to 95° C. for 5 minutes followed by slow cooling to room temperature. Compounds in 100% DMSO (0.1 μl) were spotted into a 384-well white polystyrene Optiplate-384 (Perkin Elmer) assay plate using a LabCyte Echo 550 (Agilent). DMSO (0.1 μl) was added to columns 12, rows A-H and column 24, rows I-P for the maximum signal control. Compound NSC-617145 (0.1 μl) was added to columns 12, rows I-P and 24, rows A-H for the minimum signal control (100% inhibition). Compounds/DMSO were preincubated for 15 minutes at 25° C. with 5 uL 2×WRN (BV08), prepared as described below, in assay buffer containing 20 mM Bicine (pH=7.5), 1 mM MgCl2, 10 mM KCl, 0.1% Pluronic F-127, 0.005% BSG, 1 mM TCEP. The reaction was initiated by the addition of 5 μl 2× substrate mixture in assay buffer and incubated for 60 minutes at 25° C. The final concentrations of the assay components were 0.15 nM WRN, 5 μM ATP, and 0.1 nM DNA duplex. The final DMSO concentration was 1% and the reference compound concentration (NSC-617145) used for the minimal signal control was 20 μM. The reaction was stopped by the addition of the ADP-Glo Kit components (Promega) as directed and the relative luminescence units (RLU) were read on an Envision 2104 (Perkin Elmer).
% Inhibition Calculation:
Where RLU=relative luminescence units, sample=signal in sample well, and MIN and MAX are the respective minimum and maximum signal controls.
Four-Parameter IC50 Fit Equation:
Where top and bottom are normally allowed to float but may be fixed at 100 or 0 respectively in a 3-parameter fit. Y is the % inhibition and X is the compound concentration.
Molecular Biology and virus production. The DNA encoding human Werner helicase (Uniprot Q14191, amino acids 517-1235 with L1074F point mutation) was generated with codon-optimization for E. coli expression and subcloned into the pFastBac vector with a TEV cleavable 8×His tag (WRN-BV08). The baculovirus from the expression plasmid WRN-BV08 was generated from transfection and amplification following the manufacturer's instructions.
Sf9 cells grown in SF900II media were infected with 1:200 WRN-BV08 P2 virus and incubated for protein expression for 72 h at 27° C. The WRN protein was purified using the following protocol. The cell pellets were thawed and resuspended in buffer A (50 mM Tris, pH 7.5, 500 mM NaCl, 1 mM TCEP, 10% Glycerol) supplemented with 0.5% CHAPS, 1 mM [COMPOUND LEFT OUT], 1 μg/mL Leupeptin, 1 μg/mL Pepstatin, and the Pierce Universal Nuclease and cocktail tablet. Cleared lysates were loaded onto a Ni Sepharose™ excel column and washed with buffer A and bound protein was eluted with buffer A supplemented with 300 mM imidazole. The eluted protein was dialyzed against buffer A and digested by His-tagged TEV (1:5 ratio) overnight at 4° C. ZnCl2 was added into the sample at final 15 μM before loading onto a second Ni Sepharose™ excel column. Untagged WRN protein was eluted from the column with buffer A supplemented with 20 mM imidazole, dialyzed overnight into buffer B (50 mM Tris, pH 7.5, 1 mM TCEP, 10% Glycerol) supplemented with 150 mM NaCl and loaded onto a Heparin column. Proteins were eluted with a step gradient of buffer B supplemented with 150 mM, 200 mM, 300 mM and 500 mM NaCl. […]
In the case of `COc1cc(CN(C(=O)Cc2ccc(C(F)(F)F)cc2)C2C=CS(=O)(=O)C2)ccn1` (single isomer, unassigned) [I-57], the IC50 is less than 0.5 µM. With `COC(C(=O)N(Cc1ccncc1)C1C=CS(=O)(=O)C1)c1ccc(-c2ccc(F)cc2)cc1` (single isomer, unassigned) [I-72, (2R*)-N-[(3R**)-1,1-dioxo-2,3-dihydro-1lambda6-thiophen-3-yl]-2-{4′-fluoro-[1,1′-biphenyl]-4-yl}-2-methoxy-N-[(pyridin-4-yl)methyl]acetamide] the figure was less than 0.5 µM.

`O=C(Cc1ccc(-n2cccc2)cc1F)N(Cc1ccncc1)C1C=CS(=O)(=O)C1` (single isomer, unassigned) [I-127]: the IC50 lay within 0.5 to 5 µM. Consider `COc1cc(CN(C(=O)Cc2ccc(-c3ccc(F)cc3O)nc2)C2C=CS(=O)(=O)C2)ccn1` (single isomer, unassigned) [I-130], for which the IC50 lay in the range of 0.5 to 5 µM. For `O=C(Cn1cc(-c2ccccc2)cn1)N(Cc1ccncc1)C1C=CS(=O)(=O)C1` (single isomer, unassigned) [I-133] the value was 0.5 to 5 µM; for `O=C(Cc1ccc(-n2cccc2)cc1)N(Cc1ccncc1)C1C=CS(=O)(=O)C1` (single isomer, unassigned) [I-193], 0.5 to 5 µM; for `COC(C(=O)N(Cc1ccnc(C(C)(C)O)c1)C1C=CS(=O)(=O)C1)c1ccc(-c2ccc(F)cc2)cc1F` (single isomer, unassigned) [I-199, (2R*)-2-{3,4′-difluoro-[1,1′-biphenyl]-4-yl}-N-[(3R**)-1,1-dioxo-2,3-dihydro-1lambda6-thiophen-3-yl]-N-{[2-(2-hydroxypropan-2-yl)pyridin-4-yl]methyl}-2-methoxyacetamide], 0.5 to 5 µM. For `COc1cc(CN(C(=O)C(C(=O)N(C)C)c2ccc(-c3ccc(F)cc3)cc2F)C2C=CS(=O)(=O)C2)ccn1` (single isomer, unassigned) [I-235, (2R**)-2-{3,4′-difluoro-[1,1′-biphenyl]-4-yl}-N-[(3R*)-1,1-dioxo-2,3-dihydro-1lambda6-thiophen-3-yl]-N-[(2-methoxypyridin-4-yl)methyl]-N′,N′-dimethylpropanediamide] the value was 5 to 10 µM; for `CN(C)C(=O)C(C(=O)N(Cc1ccnc(C(C)(C)O)c1)C1C=CS(=O)(=O)C1)c1ccc(-c2ccc(F)cc2)cc1F` (single isomer, unassigned) [I-237, (2R**)-2-{3,4′-difluoro-[1,1′-biphenyl]-4-yl}-N-[(3R*)-1,1-dioxo-2,3-dihydro-1lambda6-thiophen-3-yl]-N-{[2-(2-hydroxypropan-2-yl)pyridin-4-yl]methyl}-N′,N′-dimethylpropanediamide], 5 to 10 µM. In the case of `O=C(Cc1ccc(S(F)(F)(F)(F)F)cc1)N(Cc1nc(C2CC2)cs1)C1C=CS(=O)(=O)C1` (single isomer, unassigned) [I-253], the IC50 was in the range of 10 to 50 µM. Consider `CN(C)C(=O)C(C(=O)N(Cc1ccnc(C(C)(C)O)c1)C1C=CS(=O)(=O)C1)c1ccc(-c2ccc(F)cc2)cc1F` (single isomer, unassigned) [I-258, (2R**)-2-{3,4′-difluoro-[1,1′-biphenyl]-4-yl}-N-[(3R*)-1,1-dioxo-2,3-dihydro-1lambda6-thiophen-3-yl]-N-{[2-(2-hydroxypropan-2-yl)pyridin-4-yl]methyl}-N′,N′-dimethylpropanediamide], for which the IC50 lay in the range of 5 to 10 µM. For `O=C(Cc1ccc(-n2cccc2)cc1)N(Cc1ccccc1)C1C=CS(=O)(=O)C1` (single isomer, unassigned) [I-262] the value was 5 to 10 µM; for `CN(C)C(=O)C(C(=O)N(Cc1ccnc(C(C)(C)O)c1)C1C=CS(=O)(=O)C1)c1ccc(-c2ccc(F)cc2)cc1` (single isomer, unassigned) [I-264, (2R**)-N-[(3R*)-1,1-dioxo-2,3-dihydro-1lambda6-thiophen-3-yl]-2-{4′-fluoro-[1,1′-biphenyl]-4-yl}-N-{[2-(2-hydroxypropan-2-yl)pyridin-4-yl]methyl}-N′,N′-dimethylpropanediamide], 5 to 10 µM.
